Our source for the IC50 values is patent US20180273528A1 (LES LABORATOIRES SERVIER, priority 2015, published 2018).

In assay [1] the target is T1, His-TEV-DYRK1A Kinase domain (aa127-485) (Homo sapiens, UniProt Q13627).
T1 construct: His-TEV-DYRK1A Kinase domain (aa127-485); His tag (N); TEV protease cleavage site (N)
The assay is described as follows: Kinase ADP assay (ADP Hunter), DYRK1A kinase domain. Type of assay: biochemical. As to conditions: 20 μM ATP. In a few lines:
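Readout is ADP Hunter fluorescence at 590 nm, developed 20 min at 30 °C after the kinase step. That step ran 10 min at 30 °C in Hepes pH 7.4 (10 mM MgCl2, 1 mM EGTA, 0.02% Tween20) containing 20 μM ATP, 40 μM peptide and 20 nM enzyme plus compound.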

Assay [2] has as its target T2, DYRK1B (Homo sapiens, UniProt Q9Y463).
T2 construct: full-length human kinases from Carna Biosciences; purchased Carna Biosciences 04-131
Description: Kinase TR-FRET assay, DYRK1B. As to conditions: full-length human kinase, 10 μM ATP. Type of assay: biochemical. The protocol:
(§1) Inhibition of the enzymatic activity of human kinases was evaluated in a Time-Resolved Fluorescence Resonance Energy Transfer (TR-FRET) assay in 384-well reaction plates. […] Test compounds of the invention were added in reaction buffer at a range of concentrations from 0.1 nM to 30 μM. Following addition of EDTA (Sigma E7889, 10 mM) to stop the reaction, Europium-labelled mouse monoclonal antibody recognizing phospho-Thr232 in MBP (Perkin Elmer TRF0201, 1 nM) was added.
On the technique in general: In TR-FRET formats the signal depends on donor and acceptor labels being close together.

Assay [3] concerns the target T3, DYRK1A (Homo sapiens, UniProt Q13627). Description: Kinase TR-FRET assay, DYRK1A. Type of assay: biochemical. Also on record: full-length, wild-type human DYRK1A (NM_001396) with an HA tag; expressed in transfected cells; host or cells: human U2-OS osteosarcoma cells, transient transfection of a pcDNA3.1 plasmid. As to conditions: full-length human kinase, 10 μM ATP. As for the experimental part:
as §1

Assay [4] has as its target T4, CDK9 (Homo sapiens, UniProt P50750).
T4 construct: full-length human kinases from Carna Biosciences; purchased Carna Biosciences 04-110
The assay is described as follows: Kinase TR-FRET assay, CDK9. As to conditions: full-length human kinase, 10 μM ATP. Type of assay: biochemical. As for the experimental part: Inhibition of the enzymatic activity of human kinases was evaluated in a Time-Resolved Fluorescence Resonance Energy Transfer (TR-FRET) assay in 384-well reaction plates. In this assay, full-length human kinases from Carna Biosciences—DYRK1A (NM_001396, ref. 04-130; 2.0 ng/μl), DYRK1B (NM_004714, ref. 04-131; 1.2 ng/p), CLK1 (NM_001162407, ref. 04-126; 0.7 ng/μl), CDK9 (NM_001261, ref. 04-110; 0.9 ng/μl), or GSK3β (NM_001146156, ref. 04-141; 2.0 ng/μl—were incubated for 40 minutes (DYRK1A and DYRK1B) or 100 minutes (CLK1, CDK9 and GSK3β) at room temperature with ATP (Sigma A2383, 10 μM) and a ULight™-labelled human Myelin Basic Protein (MBP) peptide substrate (Perkin Elmer TRF0109, 100 nM) in a reaction buffer composed of 50 mM HEPES pH7.4, 1 mM EGTA, 10 mM MgCl2, 2 mM DTT and 0.01% Tween20. Test compounds of the invention were added in reaction buffer at a range of concentrations from 0.1 nM to 30 μM. Following addition of EDTA (Sigma E7889, 10 mM) to stop the reaction, Europium-labelled mouse monoclonal antibody recognizing phospho-Thr232 in MBP (Perkin Elmer TRF0201, 1 nM) was added. After one hour, the reaction plates were read using a fluorescence reader (EnVision®, Perkin Elmer) at 620 nm and 665 nm (excitation at 340 nm); when the Europium donor fluorophore is excited by light at 340 nm, an energy transfer (620 nm) to the acceptor occurs, which will then emit light at 665 nm.

For assay [5], the target named is T3, DYRK1A. The assay is described as follows: Cellular DYRK1 autophosphorylation assay in U2-OS cells. As to conditions: U2-OS cells transfected with HA-tagged human DYRK1A, 5 hours exposure; read-out: IC50 (μM) P-Ser520-Dyrk1A -Cell assay. Type of assay: cell-based. Also noted: full-length, wild-type human DYRK1A (NM_001396) with an HA tag; expressed in transfected cells; host or cells: human U2-OS osteosarcoma cells, transient transfection of a pcDNA3.1 plasmid. In a few lines:
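IC50 derived from dose-response curves of phospho-Ser520-DYRK1A (blots normalised to total DYRK1A), quantified by either immunoblotting with chemiluminescence or Mesoscale electrochemiluminescent ELISA. Compounds applied to U2-OS cells across several concentrations for 5 hours.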

T4 sequence (P50750 whole entry): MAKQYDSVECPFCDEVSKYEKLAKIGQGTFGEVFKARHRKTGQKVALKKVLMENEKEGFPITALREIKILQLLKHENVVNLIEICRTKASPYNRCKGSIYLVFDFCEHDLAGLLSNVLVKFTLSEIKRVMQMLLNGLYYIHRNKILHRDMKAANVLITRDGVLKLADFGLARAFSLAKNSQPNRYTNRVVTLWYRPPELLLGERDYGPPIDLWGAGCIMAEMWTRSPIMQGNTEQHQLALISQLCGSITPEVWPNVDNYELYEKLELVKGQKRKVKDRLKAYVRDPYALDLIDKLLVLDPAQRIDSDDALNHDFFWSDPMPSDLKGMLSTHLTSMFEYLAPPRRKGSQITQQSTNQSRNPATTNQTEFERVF
T4 sequence (O60563 whole entry partner): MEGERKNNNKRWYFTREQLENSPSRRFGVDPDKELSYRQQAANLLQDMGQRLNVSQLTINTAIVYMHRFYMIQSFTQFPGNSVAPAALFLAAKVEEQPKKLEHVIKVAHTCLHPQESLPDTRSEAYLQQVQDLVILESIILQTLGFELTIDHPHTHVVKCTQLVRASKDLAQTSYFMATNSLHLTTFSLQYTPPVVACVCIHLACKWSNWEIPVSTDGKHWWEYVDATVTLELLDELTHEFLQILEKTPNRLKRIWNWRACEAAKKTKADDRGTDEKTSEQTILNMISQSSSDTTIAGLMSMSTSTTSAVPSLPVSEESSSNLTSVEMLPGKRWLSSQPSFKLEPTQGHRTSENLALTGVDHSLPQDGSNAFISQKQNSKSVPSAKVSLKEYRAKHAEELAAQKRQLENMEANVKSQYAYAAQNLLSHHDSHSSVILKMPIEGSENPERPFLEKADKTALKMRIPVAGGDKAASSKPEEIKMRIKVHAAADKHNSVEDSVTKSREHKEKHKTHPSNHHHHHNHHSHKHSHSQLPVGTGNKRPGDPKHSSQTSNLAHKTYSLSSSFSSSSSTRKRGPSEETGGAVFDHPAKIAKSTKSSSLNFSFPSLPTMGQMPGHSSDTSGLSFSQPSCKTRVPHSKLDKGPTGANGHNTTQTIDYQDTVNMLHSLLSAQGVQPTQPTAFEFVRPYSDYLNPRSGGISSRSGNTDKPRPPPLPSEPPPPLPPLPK
T2 sequence (Q9Y463 whole entry): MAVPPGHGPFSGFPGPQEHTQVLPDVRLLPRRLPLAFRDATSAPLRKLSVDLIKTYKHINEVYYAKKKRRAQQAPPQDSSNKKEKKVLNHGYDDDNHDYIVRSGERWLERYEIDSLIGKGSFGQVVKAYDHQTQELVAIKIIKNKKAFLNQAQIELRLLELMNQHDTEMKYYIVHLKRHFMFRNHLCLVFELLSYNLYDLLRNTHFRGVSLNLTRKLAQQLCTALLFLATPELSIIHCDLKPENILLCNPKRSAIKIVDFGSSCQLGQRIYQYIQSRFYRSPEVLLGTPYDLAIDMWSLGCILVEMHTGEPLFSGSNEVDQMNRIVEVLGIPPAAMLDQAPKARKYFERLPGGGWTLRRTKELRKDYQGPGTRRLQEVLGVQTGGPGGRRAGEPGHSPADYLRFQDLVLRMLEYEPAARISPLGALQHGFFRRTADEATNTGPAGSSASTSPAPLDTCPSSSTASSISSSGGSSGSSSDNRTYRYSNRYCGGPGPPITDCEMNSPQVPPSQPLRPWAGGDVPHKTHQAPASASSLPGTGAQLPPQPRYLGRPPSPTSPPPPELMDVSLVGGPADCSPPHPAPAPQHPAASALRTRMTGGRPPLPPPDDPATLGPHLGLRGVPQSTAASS

What is called IC50 is the concentration at which inhibition is half-maximal. On to `Cc1nc2ccc(-c3cc(N)nc(N)c3)nc2n1CCCN1CCCC1=O` [Example 13, 1-{3-[5-(2,6-diaminopyridin-4-yl)-2-methyl-3H-imidazo[4,5-b]pyridin-3-yl]propyl}pyrrolidin-2-one], for which the half-maximal inhibitory concentration (IC50) in assay [1] is 0.035 µM; in assay [2] it was 0.019 µM; in assay [3] it was 0.012 µM; in assay [4], over 10 µM.

In the case of `CC(=O)Nc1ccc(CCn2c(C)nc3ccc(-c4cc(N)nc(N)c4)nc32)cc1` [Example 24, N-(4-{2-[5-(2,6-diaminopyridin-4-yl)-2-methyl-3H-imidazo[4,5-b]pyridin-3-yl]ethyl}phenyl)acetamide], the IC50 was found to be 0.008 µM in assay [1], 0.015 µM in assay [2], 0.005 µM in assay [3] and 3.53 µM in assay [4].

As for `Cc1nc2ccc(-c3cc(N)nc(N)c3)nc2n1C1Cc2ccccc2C1` [Example 12, 4-[3-(2,3-dihydro-1H-inden-2-yl)-2-methyl-3H-imidazo[4,5-b]pyridin-5-yl]pyridine-2,6-diamine], the IC50 in assay [1] amounted to 0.009 µM; in assay [2], 0.003 µM; in assay [3], 0.002 µM; in assay [5], 0.07 µM.

In the case of `Cc1nc2ccc(-c3ccnc(N)c3)nc2n1CC1CC1` [Example 238, 4-[3-(cyclopropylmethyl)-2-methyl-3H-imidazo[4,5-b]pyridin-5-yl]pyridin-2-amine], the figures for the IC50 in assay [1], in assay [2] and in assay [3] were 0.05 µM, 0.02 µM and 0.009 µM, respectively.

Regarding `Cc1nc2ccc(-c3cc(N)nc(N)c3)nc2n1Cc1ccncc1` [Example 5, 4-[2-methyl-3-(pyridin-4-ylmethyl)-3H-imidazo[4,5-b]pyridin-5-yl]pyridine-2,6-diamine], the concentration for half-maximal inhibition (IC50) in assay [1] came to 0.02 µM; in assay [3], 0.006 µM; in assay [4], 6.56 µM; in assay [5] it was 1 µM.

Consider `Cn1c(C(F)F)nc2ccc(-c3cc(N)nc(N)c3)nc21` [Example 228, 4-[2-(difluoromethyl)-3-methyl-3H-imidazo[4,5-b]pyridin-5-yl]pyridine-2,6-diamine], for which the IC50 in assay [1] worked out at 0.01 µM; in assay [2], 0.012 µM; in assay [3], 0.004 µM.

Consider `CCc1nc2ccc(-c3cc(N)nc(N)c3)nc2n1C1Cc2ccccc2C1` [Example 158, 4-[3-(2,3-dihydro-1H-inden-2-yl)-2-ethyl-3H-imidazo[4,5-b]pyridin-5-yl]pyridine-2,6-diamine], for which the IC50 in assay [1] amounted to 0.014 µM; in assay [2] it was 0.016 µM; in assay [3] it was 0.008 µM.

In the case of `Cc1nc2ccc(-c3cc(N)nc(N)c3)nc2n1CCC(C)(C)C` [Example 52, 4-[3-(3,3-dimethylbutyl)-2-methyl-3H-imidazo[4,5-b]pyridin-5-yl]pyridine-2,6-diamine], the 50% inhibitory concentration (IC50) was determined as 0.006 µM in assay [1], 0.008 µM in assay [2] and 0.006 µM in assay [3].

Regarding `Cc1nc2ccc(-c3cc(N)nc(N)c3)nc2n1CC(F)(F)F` [Example 28, 4-[2-methyl-3-(2,2,2-trifluoroethyl)-3H-imidazo[4,5-b]pyridin-5-yl]pyridine-2,6-diamine], inhibition in assay [4] was half-maximal at 5.7 µM (IC50).

In assay [4], `Cc1nc2ccc(-c3cc(N)nc(N)c3)nc2n1C(C)C` [Example 53, 4-[2-methyl-3-(propan-2-yl)-3H-imidazo[4,5-b]pyridin-5-yl]pyridine-2,6-diamine] displayed an IC50 of 1.31 µM.

As for `Cc1nc2ccc(-c3cc(N)nc(N)c3)nc2n1C1CCCCC1` [Example 54, 4-(3-cyclohexyl-2-methyl-3H-imidazo[4,5-b]pyridin-5-yl)pyridine-2,6-diamine], the 50% inhibitory concentration (IC50) amounted to 0.006 µM in assay [1], 0.003 µM in assay [2], 0.003 µM in assay [3] and 0.023 µM in assay [5].

Take `Cc1nc2ccc(-c3cc(N)nc(N)c3)nc2n1C` [Example 4, 4-(2,3-dimethyl-3H-imidazo[4,5-b]pyridin-5-yl)pyridine-2,6-diamine]: the half-maximal inhibitory concentration (IC50) in assay [1] is 0.011 µM; in assay [3] it was 0.015 µM; in assay [4] it was 1.26 µM; in assay [5] it was 0.25 µM.

For `Cc1nc2ccc(-c3cc(N)nc(N)c3)nc2n1Cc1cccnc1` [Example 7, 4-[2-methyl-3-(pyridin-3-ylmethyl)-3H-imidazo[4,5-b]pyridin-5-yl]pyridine-2,6-diamine], the IC50 in assay [1] was 0.079 µM; in assay [3], 0.07 µM; in assay [4], 2.38 µM.

As to `Cc1nc2ccc(-c3cc(N)nc(N)c3)nc2n1C12CC3CC(CC(C3)C1)C2` [Example 56, 4-{2-methyl-3-tricyclo[3.3.1.1^3,7]dec-1-yl-3H-imidazo[4,5-b]pyridin-5-yl}pyridine-2,6-diamine], the IC50 in assay [1] worked out at 0.015 µM; in assay [3], 0.009 µM; in assay [4] it was 0.357 µM.

For the molecule `CCCc1nc2ccc(-c3cc(N)nc(N)c3)nc2n1C1CCCC1` [Example 160, 4-(3-cyclopentyl-2-propyl-3H-imidazo[4,5-b]pyridin-5-yl)pyridine-2,6-diamine], the 50% inhibitory concentration (IC50) in assay [1] came to 0.024 µM; in assay [2], 0.068 µM; in assay [3], 0.003 µM; in assay [5] it was 0.144 µM.

`Cc1nc2ccc(-c3cc(N)nc(N)c3)nc2n1CCO` [Example 3, 2-[5-(2,6-diaminopyridin-4-yl)-2-methyl-3H-imidazo[4,5-b]pyridin-3-yl]ethanol]: the half-inhibitory concentration (IC50) in assay [1] was 0.02 µM; in assay [3] it was 0.02 µM; in assay [4], 2.57 µM; in assay [5], 0.23 µM.

As for `Cc1nc2ccc(-c3cc(N)nc(N)c3)nc2n1CC1CCCCC1` [Example 55, 4-[3-(cyclohexylmethyl)-2-methyl-3H-imidazo[4,5-b]pyridin-5-yl]pyridine-2,6-diamine], the IC50 in assay [1] was determined as 0.024 µM; in assay [2] it was 0.021 µM; in assay [3], 0.002 µM; in assay [5], 0.16 µM.

`Cc1nc2ccc(-c3cc(N)nc(N)c3)nc2n1CC1CC1` [Example 11, 4-[3-(cyclopropylmethyl)-2-methyl-3H-imidazo[4,5-b]pyridin-5-yl]pyridine-2,6-diamine]: the IC50 in assay [1] came out at 0.011 µM; in assay [3], 0.004 µM; in assay [4] it was 3.45 µM; in assay [5], 0.17 µM.

Regarding `CCCCn1c(C)nc2ccc(-c3ccnc(N)c3)nc21` [Example 236, 4-(3-butyl-2-methyl-3H-imidazo[4,5-b]pyridin-5-yl)pyridin-2-amine], the IC50 in assay [1] turned out to be 0.023 µM; in assay [2] it was 0.018 µM; in assay [3] it was 0.013 µM.

Consider `Cc1nc2ccc(-c3cc(N)nc(N)c3)nc2n1Cc1cc(OC(F)(F)F)ccc1F` [Example 50, 4-{3-[2-fluoro-5-(trifluoromethoxy)benzyl]-2-methyl-3H-imidazo[4,5-b]pyridin-5-yl}pyridine-2,6-diamine], for which the IC50 was found to be 0.057 µM in assay [1], 0.029 µM in assay [3] and 1.99 µM in assay [4].

For the molecule `Cc1nc2ccc(-c3cc(N)nc(N)c3)nc2n1CCc1cnn(-c2ccccc2)c1` [Example 21, 4-{2-methyl-3-[2-(1-phenyl-1H-pyrazol-4-yl)ethyl]-3H-imidazo[4,5-b]pyridin-5-yl}pyridine-2,6-diamine], the half-maximal inhibitory concentration (IC50) in assay [1] turned out to be 0.053 µM; in assay [3], 0.015 µM; in assay [4], 12.5 µM.
